{"source": "patent US20010022980A1", "about": "“Dietary supplement for individuals under stress” (Beth Israel Deaconess Medical Center, priority 1998, published 2001)", "origin": "cited, not measured here", "key": {"inflammation": {"tested_on": "inflammation", "details": "rats"}, "[1]": {"details": "20 g per day for five days, 3 g daily for remaining 9 weeks; weight training"}, "[2]": {"details": "soldiers, 24 g in a sports bar"}, "[3]": {"details": "2 to 5 g per day"}, "PCr": {"tested_on": "PCr", "details": "athletes; about 20 g during exercise"}, "[4]": {"details": "males and females; 20 g per day"}, "tetanus toxoid": {"tested_on": "tetanus toxoid", "details": "given during 14 days of training (glutamine 14 g)"}, "explicit memory": {"tested_on": "explicit memory", "details": "college students; 25 grams; 90 minutes after ingestion"}}, "data": [{"compound": "CCCCC/C=C\\C/C=C\\C/C=C\\CCCCC(=O)O", "note": "[GLA, γ-linoleic acid]", "values": [{"measurement": "cellular phase of inflammation (polymorphonuclear leukocyte accumulation, phagocytosis, and lysosomal enzyme activity)", "setting": "inflammation", "value": "suppressed"}]}, {"compound": "CN(CC(=O)O)C(=N)N.O", "note": "[creatine monohydrate]", "values": [{"measurement": "increase in fat free mass", "setting": "[1]", "value": 4.4, "unit": "%"}, {"measurement": "increase in intracellular water", "setting": "[1]", "value": 3.2, "unit": "%"}, {"measurement": "increase in total body water", "setting": "[1]", "value": 5, "unit": "%"}, {"measurement": "strength (bench press and squat exercises)", "setting": "[1]", "value": "significant increase"}, {"measurement": "increase in body mass", "setting": "[2]", "value": 1.5, "unit": "kg"}, {"measurement": "increase in total repetitions over five sets of bench presses", "setting": "[2]", "value": 14.4, "unit": "%"}, {"measurement": "reduction of time to complete an obstacle course", "setting": "[2]; not significant", "value": "7.6 ± 8.2", "unit": "s"}, {"measurement": "decrease in body fat", "setting": "[2]; p <0.05", "value": 0.6, "unit": "%"}]}, {"compound": "CN(CC(=O)O)C(=N)N", "note": "[creatine]", "values": [{"measurement": "muscle creatine content", "setting": "[3]", "value": "increases"}, {"measurement": "resynthesis of PCr after exercise", "setting": "PCr", "value": "rapid resynthesis"}, {"measurement": "blood pressure", "setting": "[4]", "value": "no change"}, {"measurement": "body fat", "setting": "[4]", "value": "no change"}, {"measurement": "lean body mass determined by DEXA", "setting": "[4]", "value": "increased"}, {"measurement": "plasma creatine kinase", "setting": "[4]", "value": "no change"}]}, {"compound": "NC(=O)CC[C@H](N)C(=O)O", "note": "[glutamine]", "values": [{"measurement": "percentage of soldiers who had an induration >10 mm in response to tetanus toxoid", "setting": "tetanus toxoid", "value": 50, "unit": "%"}]}, {"compound": "NCC(=O)O", "note": "[glycine, reference compound]", "values": [{"measurement": "percentage of soldiers who had an induration >10 mm in response to tetanus toxoid", "setting": "tetanus toxoid", "value": 30, "unit": "%"}]}, {"compound": "phosphatidylcholine", "values": [{"measurement": "explicit memory (serial learning task)", "setting": "explicit memory", "value": "improve explicit memory"}]}]}
